Measurements taken from patent US6423855B1, “Cytoprotective compounds” (Virginia Commonwealth University, priority 1996, dated 2002).
Values after ≈ are worked out from the molar mass of the structure shown. “Also recorded” adds a separate entry of the source. Read-outs that look alike come from different tables or passages of the source. Blank lines part the entries; values can stand above or below the molecule they belong to.

What was measured:
pancreatin = assay: degradation in vitro by pancreatin; assay type: in vitro ADME; conditions: commercial pancreatic enzyme preparation (Sigma)
Excerpt: The compounds of the present invention are not generally hydrolyzed by pancreatic enzymes and are different from glycerol-based compounds in terms of their chemistry and metabolism. […] The resistance of PX-13 and PX-18 to metabolism by pancreatic enzymes supports their stability after oral administration.

[1] = target: T1, purified human disc type II, PLA2 (Homo sapiens, UniProt P14555); assay: inhibition of purified human disc type II PLA2; assay type: biochemical
T1 construct: the purified human disc type II, PLA2; from tissue; host or cells: human vertebral (herniated) disc
Description: Both PX-13 and PX-18 inhibit the purified human disc type II, PLA2. PLA2 activity was measured as described in Franson et al., Prostaglandins, Leukotrienes and Essential Fatty Acids, 43:63-70, 1991, which is herein incorporated by reference in its entirety.

[2] = system: drug-resistant P. falciparum strains; assay: growth of the same drug-resistant P. falciparum strains (PX-18); assay type: cell-based, Plasmodium falciparum; conditions: for IC50: two strains as described above, which value for which strain not stated
basophils = assay: histamine release from basophils (anti-human IgE, diluted blood); assay type: cell-based
Description: The protocol to evaluate the effects of PX-18 on histamine release is described below. Freshly drawn heparinized blood from donors non-medicated for 3 days is diluted 1:5 with PBS containing 1% human serum albumin (diluent). Test drugs are diluted in diluent to 10 times final concentration, and 25 μl per well is added to duplicate wells of round-bottomed microtiter plates. Generally 3-fold dilutions of drug are examined four or five times. 200 μl of diluted blood is then added to each well. 5 minutes later, […] of rabbit anti-human IgE (purchased from Dako) is added per well, to give final concentrations of 1/400 and 1/1200 of antibody. Unstimulated (background release wells) have 25 μl of diluent added. Plates are gently tapped for mixing, then incubated for 30 minutes. After incubation, plates are cooled on ice, spun down in a refrigerated centrifuge, and replaced on ice. 100 μl plasma is removed from each well for assay, and placed in a 1.5 ml Eppendorf tube containing acetylation reagent. Following acetylation, the histamine adduct is quantitated by a sensitive and specific commercial competitive assay, utilizing the competition of enzyme conjugated acetyl-histamine with sample analyte for binding to a specific antibody on the solid phase. A sample of blood is also lysed by repeated freeze/thaw to determine total blood histamine. Results are expressed as a percentage of total blood histamine release. In an acceptable assay maximal release is greater than 45% and background release is less than 15%. Experiments are performed in duplicate or triplicate using separate blood donors.

cyclooxygenase II = assay: whole blood eicosanoid release, LPS induction; assay type: cell-based, human; conditions: 5 ug/ml E. coli LPS, 6 hours, 37° C.
Description: (§1) The following protocol was employed to evaluate effects of PX-18 on production of leukotrienes and prostaglandins by blood cells under basal conditions, with ionophore stimulation of cyclooxygenase type I, and with lipopolysaccharide (LPS) induction of cyclooxygenase type II. Freshly-obtained heparinized blood from medication-free donors is diluted 1:1 with RPMI, and aliquoted in 0.6 ml amounts in sterile polypropylene 12×75 […] tubes. Test drugs are added at appropriate concentrations and diluted in saline with 1% human serum albumin. Control tubes have only diluent or drug vehicle added. Drugs are added five minutes prior to addition of stimulus, at 100×concentrations, (6 μl volumes). This is replicated for 3 racks of tubes, A thru C. A has no stimulus added, and has a 30 minute and 6 hr. tube for each drug concentration. B has 20 uM of the calcium ionophore A23187 added, and is incubated at 37° C. for 30 minutes. C has 5 ug/ml of E. coli strain Bort LPS added, and is incubated at 37° C. for 6 hours. At the end each time period, the appropriate tubes are placed on ice, centrifuged, and 0.4 ml of plasma carefully decanted into a tube containing formic acid and BHT to stop all reactions and preserve eicosanoid products. These tubes are then frozen at −70° C. for up to one week, then applied to Sep-pac mini columns and extracted into methanol. […]

cyclooxygenase I = assay: whole blood eicosanoid release, ionophore stimulation; assay type: cell-based, human; conditions: 20 uM A23187, 30 minutes
Description: as §1

[3] = system: basal production of prostaglandins; assay: whole blood eicosanoid release, basal; assay type: cell-based, human; conditions: no stimulus
Description: as §1

[4] = system: lipoxygenase products such as LTC4; assay: whole blood production of lipoxygenase products; assay type: cell-based, human; conditions: comparison to MK 592
Description: as §1

[5] = system: lipoxygenase and cyclooxygenase; assay: lipoxygenase and cyclooxygenase metabolites with exogenous arachidonic acid; assay type: cell-based; conditions: exogenous arachidonic acid added
Excerpt: The comparison is to MK 592, a selective lipoxygenase inhibitor.

[6] = system: larval forms of an animal filarid; assay: molting of larval forms of a filarid
Excerpt: Infections caused by parasites constitute a major public health problem throughout the world for humans and animals, annually resulting in significant incidence of disease, suffering and death. Parasites such as those that cause malaria and other protozoal parasites of animals and humans are especially troublesome.

[7] = system: PLA2 activity in extracts of rat bowel; assay: PLA2 activity in extracts of rat bowel; assay type: biochemical
small bowel graft = assay: small bowel transplantation ischemia-reperfusion injury; assay type: in vivo, rat
Description: (§2) These drugs were also tested for their ability to enhance the preservation of tissues stored for subsequent transplantation. The small bowel was removed from rats, washed free of luminal contents and the tissue stored in University of Wisconsin (UW) preservative media ±40 uM PX-13 or mepacrine for 48 hrs. The graft was then transplanted into rats with or without intravenous (IV) infusion of 20 mg/kg PX-13 or mepacrine at the time of transplantation.

[8] = small bowel storage in perfusate solution, tissue weight; design: species or system rat; conditions: 24 and 48 hours in the perfusate solution
Description: These drugs were also tested for their ability to enhance the preservation of tissues stored for subsequent transplantation. […] The graft was then transplanted into rats with or without intravenous (IV) infusion of 20 mg/kg PX-13 or mepacrine at the time of transplantation.

[9] = peroxidation (malondialdehyde formation) of homogenized rat bowel
Description: as §2, with “of transplantation. Upon transplantation, the bowel is immediately injured as evidenced by tissue darkening within two minutes. […] Both PX-13 and mepacrine inhibit the peroxidation (malondialdehyde formation) of homogenized rat bowel, an indication that the membrane-stabilizing, PLA2-inhibitors, also have anti-oxidant activity.” for “of transplantation.”

human blood cells = assay: preservation of whole blood (LDH and hemoglobin release); assay type: cell-based; conditions: 20 uM
Description: The effect of PX-13 and mepacrine on whole blood cell viability were tested as a function of time of storage.
Heparinized human blood was centrifuged at 400×g and the resulting plasma was removed and replaced with an equal volume of Dulbecco's medium. The resuspended cells were then incubated at 37° C. for 0-72 hrs. in a shaking water bath. At the indicated times, a 0.8 ml aliquot was removed and centrifuged at 400×g to sediment cells. Appearance of lactate dehydrogenase (LDH) and hemoglobin in the supernate was indicative of cell injury. PX-13 and mepacrine stabilized cells and decreased the injury as evidenced by diminished levels of LDH and hemoglobin in the supernate. This is expressed as percent protection.

T1 sequence (P14555 21-144): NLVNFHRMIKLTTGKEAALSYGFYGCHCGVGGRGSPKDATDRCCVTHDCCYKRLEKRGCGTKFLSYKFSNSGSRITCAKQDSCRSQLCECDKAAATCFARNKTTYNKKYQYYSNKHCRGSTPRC

- degradation in vitro by pancreatin (pancreatin): resistant to degradation
- IC50 [1]: 300 nM
SMILES: CCCCCCCC/C=C\CCCCCCCC(=O)OCCN(CCOC(=O)CCCCCCC/C=C\CCCCCCCC)CCS(=O)(=O)O [PX-18, 2-[N,N-Bis(2-oleoyloxyethyl)amino]-1-ethanesulfonic acid]
- effectiveness relative to PX-13 [2]: 10 times
- IC50 ([2]; Plasmodium falciparum, read-out: IC50): 1.3 µg/mL (≈ 1.75 µM)
- IC50 [2]: 2.4 µg/mL (≈ 3.23 µM)
- efficacy relative to cromolyn (basophils): more efficacious than cromolyn
- potency relative to epinephrine (basophils): equipotent to epinephrine
- degranulation of basophils (basophils; stimulus antibody to surface-bound IgE): inhibits
- inhibition of cytokine-inducible cyclooxygenase II (cyclooxygenase II): strongly inhibit
- inhibition of constitutive cyclooxygenase I (cyclooxygenase I): less inhibition
- inhibition of basal production of prostaglandins [3]: even less or no inhibition
- production of lipoxygenase products such as LTC4 [4]: inhibited
- production of lipoxygenase and cyclooxygenase metabolites [5]: does not inhibit

SMILES: CCN(CC)CCCC(C)Nc1c2ccc(Cl)cc2nc2ccc(OC)cc12 (centres unmarked) [mepacrine, reference compound]
- molting of larval forms [6]: significantly reduced
- inhibition of PLA2 activity [7]: inhibited
- gross and microscopic injury to tissue (small bowel graft; 40 uM in UW media 48 hrs, with or without 20 mg/kg IV at transplantation): dramatically reduced
- protection against ischemia and reperfusion injury (small bowel graft; small bowel transplantation): protect; also recorded: some protection although not as great as with PX-13
- weight of the tissues after storage [8]: reduced weight
- peroxidation (malondialdehyde formation) [9]: inhibit
- Percent Protection Hemoglobin (human blood cells; 48 hr): 61%
- Percent Protection LDH (human blood cells; 48 hr, 37° C.): 58%
- Percent Protection Hemoglobin (human blood cells; 72 hr): 45%
- Percent Protection LDH (human blood cells; 72 hr): 27%
